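1) Cells in 96-well plates. 2) Compound, 48 h, 5 concentrations. 3) Linear interpolation between surrounding doses. 4) Unreached endpoint = highest concentration. Here, GI50 denotes the concentration required for 50% inhibition of growth. TGI marks complete inhibition of growth.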
Key:
Assay in all cases: inhibition of tumour cell growth, NCI panel, 48 h; in the data active = GI50 below about 0.43 µM; inactive = the rest
[1] = test system: SF-539 CNS
[2] = test system: HCC-2998 colon
[3] = test system: HOP-92 NSCLC
[4] = test system: ACHN renal
[5] = test system: EKVX NSCLC
[6] = test system: BT-549 breast
[7] = test system: SNB-19 CNS
[8] = test system: SN12C renal
[9] = test system: HL-60(TB) leukemia
[10] = test system: SNB-75 CNS
[11] = test system: MCF7 breast
[12] = test system: MDA-MB-231 breast
[13] = test system: KM12 colon
[14] = test system: RXF 393 renal
[15] = test system: MDA-MB-435
[16] = test system: NCI-H522 lung
[17] = test system: UACC-257 melanoma
[18] = test system: HT29 colon
[19] = test system: OVCAR-8 ovarian
[20] = test system: SK-MEL-28 melanoma
[21] = test system: K-562 leukemia
[22] = test system: U251 CNS
[23] = test system: SK-MEL-5 melanoma
[24] = test system: SF-295 CNS
[25] = test system: M14 melanoma
[26] = test system: HCT-116 colon
[27] = test system: CAKI-1 renal
[28] = test system: NCI/ADR-RES ovarian
[29] = test system: CCRF-CEM leukemia
[30] = test system: MOLT-4 leukemia
[31] = test system: UO-31 renal
[32] = test system: 786-0 renal
[33] = test system: OVCAR-5 ovarian
[34] = test system: PC-3 prostate
[35] = test system: HS 578T breast
[36] = test system: HCT-15 colon
[37] = test system: MALME-3M melanoma
[38] = test system: DU-145 prostate
[39] = test system: HOP-62 NSCLC
[40] = test system: SR leukemia
[41] = test system: RPMI-8226 leukemia
[42] = test system: NCI-H460 lung
[43] = test system: COLO 205 colon
[44] = test system: IGROV1 ovarian
[45] = test system: T-47D breast
[46] = test system: NCI-H226 lung
[47] = test system: TK-10 renal
[48] = test system: UACC-62 melanoma
[49] = test system: SW-620 colon
[50] = test system: SK-OV-3 ovarian
[51] = test system: LOX IMVI melanoma
[52] = test system: A549 NSCLC
[53] = test system: OVCAR-3 ovarian
[54] = test system: A498 renal
[55] = test system: SF-268 CNS
[56] = test system: OVCAR-4 ovarian
[57] = test system: SK-MEL-2 melanoma
[58] = test system: NCI-H23 lung
[59] = test system: MDA-N

C[C@@H](CO)NC(=O)c1cc(-c2ccc(Cl)cc2)nn(-c2cnn(C)c2)c1=O
42.3 µM: TGI [9]
26 µM: TGI [23]
35.1 µM: TGI [46]
45.8 µM: TGI [14]
50.7 µM: TGI [24]
57.4 µM: TGI [31]
48.3 µM: TGI [1]
inactive: GI50 [1] 16 µM | GI50 [2] 23.1 µM | GI50 [3] 16.6 µM | GI50 [4] 15.4 µM | GI50 [5] 26 µM | GI50 [6] 23.7 µM | GI50 [7] 26.4 µM | GI50 [8] 19.3 µM | GI50 [9] 13.9 µM | GI50 [10] 16.7 µM | GI50 [11] 25.7 µM | GI50 [12] 51.5 µM | GI50 [13] 59.9 µM | GI50 [14] 7.79 µM | GI50 [15] 50.3 µM | GI50 [16] 14.4 µM | GI50 [17] 30.6 µM | GI50 [18] 19.4 µM | GI50 [19] 26.3 µM | GI50 [20] 28.4 µM | GI50 [21] 26.3 µM | GI50 [22] 42.9 µM | GI50 [23] 12.7 µM | GI50 [24] 16.4 µM | GI50 [25] 31.1 µM | GI50 [26] 19.1 µM | GI50 [27] 10.4 µM | GI50 [28] 16.7 µM | GI50 [29] 22.1 µM | GI50 [30] 15.9 µM | GI50 [31] 7.79 µM | GI50 [32] 23.9 µM | GI50 [33] 28.7 µM | GI50 [34] 27.8 µM | GI50 [35] 24.8 µM | GI50 [36] 17.2 µM | GI50 [37] 17.8 µM | GI50 [38] 29.6 µM | GI50 [39] 41.8 µM | GI50 [40] 18.2 µM | GI50 [41] 20.5 µM | GI50 [42] 30 µM | GI50 [43] 24.7 µM | GI50 [44] 20.2 µM | GI50 [45] 25.9 µM | GI50 [46] 16.4 µM | GI50 [47] 3.12 µM | GI50 [48] 14.5 µM | GI50 [49] 22.9 µM | GI50 [50] 82.6 µM | GI50 [51] 14.6 µM | GI50 [52] 20.3 µM | GI50 [53] 45.5 µM | GI50 [54] 3.01 µM | GI50 [55] 25.6 µM | GI50 [56] 45.9 µM | GI50 [57] 59.9 µM | GI50 [58] 27.9 µM
90.6 µM: TGI [43]
37.2 µM: TGI [51]
76.7 µM: TGI [18]
45 µM: TGI [37]
91.5 µM: TGI [30]
67.7 µM: TGI [52]
95 µM: TGI [21]
47 µM: TGI [47]
82.1 µM: TGI [20] | TGI [44]
78.1 µM: TGI [10]
35.7 µM: TGI [16]
67.2 µM: TGI [4]
62.3 µM: TGI [54]
> 100 µM: TGI [2] | TGI [3] | TGI [5] | TGI [7] | TGI [8] | TGI [11] | TGI [12] | TGI [13] | TGI [15] | TGI [17] | TGI [19] | TGI [22] | TGI [25] | TGI [26] | TGI [27] | TGI [29] | TGI [32] | TGI [33] | TGI [34] | TGI [35] | TGI [36] | TGI [38] | TGI [39] | TGI [40] | TGI [41] | TGI [42] | TGI [45] | TGI [49] | TGI [50] | TGI [53] | TGI [55] | TGI [56] | TGI [57] | TGI [58]
86.9 µM: TGI [6]
71.9 µM: TGI [28]
31.7 µM: TGI [48]

COC1C(N(C)C)=C(c2ccccc2)C(=O)N2CCc3ccccc3C12 (stereo not given)
> 100 µM: TGI [1] | TGI [3] | TGI [4] | TGI [5] | TGI [7] | TGI [8] | TGI [9] | TGI [10] | TGI [11] | TGI [12] | TGI [13] | TGI [14] | TGI [15] | TGI [16] | TGI [17] | TGI [18] | TGI [59] | TGI [19] | TGI [20] | TGI [22] | TGI [23] | TGI [24] | TGI [25] | TGI [26] | TGI [27] | TGI [28] | TGI [29] | TGI [30] | TGI [31] | TGI [32] | TGI [33] | TGI [34] | TGI [35] | TGI [36] | TGI [37] | TGI [38] | TGI [39] | TGI [43] | TGI [44] | TGI [45] | TGI [46] | TGI [47] | TGI [48] | TGI [49] | TGI [50] | TGI [51] | TGI [52] | TGI [54] | TGI [55] | TGI [56] | TGI [57] | TGI [58]

O=C(Cn1c(C(=O)c2ccccc2)nc2ccccc21)c1ccccc1
> 100 µM: TGI [1] | TGI [2] | TGI [3] | TGI [4] | TGI [5] | TGI [6] | TGI [7] | TGI [8] | TGI [9] | TGI [10] | TGI [11] | TGI [12] | TGI [13] | TGI [14] | TGI [15] | TGI [16] | TGI [17] | TGI [19] | TGI [20] | TGI [22] | TGI [23] | TGI [24] | TGI [25] | TGI [26] | TGI [27] | TGI [28] | TGI [29] | TGI [30] | TGI [31] | TGI [32] | TGI [33] | TGI [34] | TGI [35] | TGI [36] | TGI [37] | TGI [38] | TGI [39] | TGI [40] | TGI [41] | TGI [42] | TGI [43] | TGI [45] | TGI [46] | TGI [47] | TGI [48] | TGI [49] | TGI [50] | TGI [51] | TGI [52] | TGI [53] | TGI [54] | TGI [55] | TGI [56] | TGI [57] | TGI [58]
> 31.6 µM: TGI [18] | TGI [44]
